SMILES strings stand for the structures. ± gives the expanded uncertainty stated by the source.

For this data set the following is noted: Liquid; Ebulliometric method (Recirculating still).
Turning to `CC(C)c1ccccc1` [isopropylbenzene], the Normal boiling temperature came to 152.40 ± 0.22 °C.

For `O=CN1CCOCC1` [N-formylmorpholine], the Normal boiling temperature came out at 240.0 ± 0.21 °C. Regarding `Cc1ccc(C)c(C)c1` [1,2,4-trimethylbenzene], the Normal boiling temperature stood at 169.30 ± 0.22 °C. The result for `CCCCc1ccccc1` [butylbenzene] reads 183.2 ± 0.22 °C; that for `CCc1ccccc1` [ethylbenzene], 136.20 ± 0.21 °C.

For the origin of these results see the NIST ThermoML archive (doi:10.1016/j.jct.2012.04.016).
